How the values were obtained:
MLL3/4 ΔSET cells = assay: CellTiter-Glo viability assay in WT, MLL3/4 ΔSET and MLL3/4 KO cells; type: cell-based, mouse; conditions: 0-2.5 μM LTX, 72 hours
Text: FIG. 11. […] (A) Western blot showing MLL4, MLL3, NCOA6, UTX, RbBP5 and ASH2L protein levels in WT, MLL3/4 ASET and MLL3/4 KO cells with Hsp90 as the loading control. Bulk levels of histone H3K4me1, H3K4me2, H3K4me3 and H3K27Ac were also shown. N, N-terminus; C, C-terminus. mESCs harboring deletion of the SET domains of both MLL3 and MLL4 (referred to as MLL3/4 ΔSET) were generated in our previous studies (20). (B) Western blot showing nuclear and cytoplasmic MLL4, UTX, NCOA6 and RBBP5 protein levels after cell fractionation, with MLL1 and Hsp90 serving as nuclear and cytoplasmic loading control. (C) WT, MLL3/4 ΔSET and MLL3/4 KO cells were treated with 0-2.5 μM lometrexol (LTX) for 72 hours. CellTiter-Glo® luminescent cell viability assay was performed to determine the percentage of inhibition.

WT and Mll3/4 KO mESCs = assay: RNA-seq of WT and Mll3/4 KO mESCs treated with LTX -/+ HPX; type: cell-based, mouse; conditions: 48 hours
Experimental: FIG. 3. […] (A) WT and Mll3/4 KO cells were treated with 0-2.5 μM lometrexol (LTX)−/+50 hypoxanthine (HPX) for 48 hours. CellTiter-Glo® luminescent cell viability assay was performed to determine the percentage of inhibition under these conditions. (B) WT and KO cells were treated with 0.3 μM LTX−/+50 μM HPX for 48 hours, and cells were harvested for RNA-seq. Differential gene expression analyses were performed with indicated comparisons. (C) Principal component analysis of RNA-seq in (B). (D) Hierarchical clustering heatmap showing differentially expressed genes in KO cells in comparison with WT cells.
FIG. 10. Mll3/4 KO mESCs are more sensitive to purine synthesis inhibition. (A-B) WT and Mll3/4 KO cells were treated with 0-2.5 μM lometrexol (LTX) (A) or 0-5 methotrexate (MTX) (B) for 48 hours. CellTiter-Glo® luminescent cell viability assay was performed to determine the percentage of inhibition under these conditions with three different Mll3/4 KO clones included. (C) WT and Mll3/4 KO cells were treated with 0-40 μM SHIINI for 48 hours. MTT cell viability assay was performed to determine the percentage of inhibition under these conditions with three different Mll3/4 KO clones included.
Gene count tables were constructed using HTseq (56) with Ensembl gene annotations and used as input for edgeR 3.0.8 (57). Genes with Benjamini-Hochburg adjusted p-values less than were differentially expressed. Batch effects were removed using ComB at-seq on the raw read counts (58). Pathway analysis was performed with Metascape (59).

[1] = tested on: BBN induced bladder cancer, MLL4 mutant tumors; assay: BBN induced bladder cancer mouse model; type: in vivo, C57BL/6J male mice; conditions: 15 mg/kg intraperitoneal twice a week for 12 weeks; Fisher's exact test, p=0.037
Text: N-butyl-N-(4-hydroxybutyl)-nitrosamine (BBN) is a carcinogen, that mimics the tobacco use in human. When administered to C57/B6 male mice in drinking water for at least 20 weeks, causes muscle invasive bladder tumors (MIBC) (1). Besides, 70% of Kmt2d/MLL4 is mutated in BBN mouse model, mimicking high MLL4 mutation rate (and low UTX mutation rate) found in […] (1, 2). Thus, we believe that this is a valuable system where we could examine the effect of lometrexol in bladder cancer based on the MLL4 mutation stratification.
Experiment design: Thirty 7-week-old C57BL/6J male mice were used in our study to induce bladder cancer by feeding them with 0.1% BBN containing water for 6 weeks. The mice were then randomized into two groups: DMSO (n=15) or lometrexol treatment (n=15) and were given intraperitoneal injections of the respective treatments twice a week at a dose of 15 mg/kg for 12 weeks. At the end of the treatment period, the bladder tissues of the mice were harvested for H&E staining and RNA isolation. Each mouse's tumor grade was assessed, and RNA samples were analyzed for mutations in the kmt2d/MLL4 gene through mRNA-seq. Finally, we compared the MLL4 genotype and treatment to the tumor stage to assess the effectiveness of the treatment.

## Nc1nc2c(c(=O)[nH]1)C[C@@H](CCc1ccc(C(=O)N[C@@H](CCC(=O)O)C(=O)O)cc1)CN2 [lometrexol, (2S)-2-[[4-[2-[(6R)-2-amino-4-oxo-5,6,7,8-tetrahydro-3H-pyrido[2,3-d]pyrimidin-6-yl]ethyl]benzoyl]amino]pentanedioic acid]
MLL3/4 ΔSET cells
  sensitivity of MLL3/4 ΔSET cells compared with WT mESCs (percentage of inhibition): indistinguishable sensitivity to LTX in comparison to WT mESCs
WT and Mll3/4 KO mESCs; 0.3 μM LTX or 50 μM HPX alone, LTX effect almost completely rescued by HPX
  gene expression change in WT and Mll3/4 KO cells: induced significant gene expression change
WT and Mll3/4 KO mESCs; 0.3 μM LTX
  genes commonly downregulated in WT and KO cells: 1063 genes
  genes commonly upregulated in WT and KO cells: 1195 genes
[1]
  tumor stage of mice with MLL4 mutant tumors compared with other groups: significant lowered tumor stages

— patent publication US20230390297A1, “USE OF NUCLEOTIDE SYNTHESIS INHIBITORS FOR TARGETED THERAPY IN MLL3/4 COMPASS MUTANT CANCER” (priority 2022, published 2023)
